According to patent US4755513A, “Antimicrobial 1-substituted phenyl-4-oxoquinoline-3-carboxylic acid compounds” (Otsuka Pharmaceutical Company, Limited, priority 1985, dated 1988):
Where two headings read alike, the source gives them in different places.

How the values were obtained:
[1] = test system: Staphylococcus aureus FDA 209P; assay: MIC by serial dilution method on agar plate; type: cell-based
Text: (§1) The microorganisms were used in a concentration of 1×10^8 cells/ml (O.D. 660 mμ, 0.07-0.16) and 1×10^6 cells/ml (100 folds dilution).

[2] = test system: Escherichia coli NIHJ JC-2; assay: MIC by serial dilution method on agar plate; type: cell-based
Text: (§2) Chemotherapy, 22, 1126-1128 (1974)]. The microorganisms were used in a concentration of 1×10^8 cells/ml (O.D. 660 mμ, 0.07-0.16) and 1×10^6 cells/ml (100 folds dilution).

Escherichia coli No. 29 = assay: MIC by serial dilution method on agar plate; type: cell-based
Text: as §2

[3] = test system: Proteus morganii IID Kono; assay: MIC by serial dilution method on agar plate; type: cell-based
Text: as §2

[4] = test system: Bacillus subtilis ATCC 6633; assay: MIC by serial dilution method on agar plate; type: cell-based
Text: as §2

[5] = test system: Pseudomonas aeruginosa ATCC 10145; assay: MIC by serial dilution method on agar plate; type: cell-based
Text: as §2

[6] = test system: Proteus inconstans IFO 12930; assay: MIC by serial dilution method on agar plate; type: cell-based
Text: as §2

[7] = test system: Serratia marcescens IFO 12648; assay: MIC by serial dilution method on agar plate; type: cell-based
Text: as §2

[8] = test system: Acinetobacter calcoaceticus AC-54; assay: MIC by serial dilution method on agar plate; type: cell-based
Text: as §2

[9] = test system: Pseudomonas aeruginosa E-2; assay: MIC by serial dilution method on agar plate; type: cell-based
Text: as §2

[10] = test system: Klebsiella pneumoniae NCTC 9632; assay: MIC by serial dilution method on agar plate; type: cell-based
Text: as §2

[11] = test system: Streptococcus faecalis IFO 12580; assay: MIC by serial dilution method on agar plate; type: cell-based
Text: as §2

[12] = test system: Staphylococcus pyrogens IID S-23; assay: MIC by serial dilution method on agar plate; type: cell-based
Text: as §1

[13] = Absorption by oral administration in monkey (plasma concentration, thin layer cup bio-assay); type: in vivo; conditions: 100 mg/kg;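 note: plasma concentration in γ/ml (µg/mL) rather than the printed ng/mL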
Method: The test compounds were dissolved in 0.1N hydrochloric acid or suspended in 0.5% sodium carboxymethyl cellulose solution. The solution or suspension was administered into stomach of monkey (two monkeys) with cathetel. After the administration of test compounds, the blood was collected from the lower limbs vein at a fixed interval with a syringe treated with heparin. The collected blood was centrifuged at 3,000 r.p.m. for 10 minutes to separate the plasma. The concentration of the test compound was measured by a thin layer cup method (a bio-assay), wherein Bacillus subtilis ATCC 6633 was used as a bacteria for determination. Based on a standard curve, the concentration of test compound in plasma was calculated.

6,8-Difluoro-1-(4-hydroxy-2-fluorophenyl)-7-(1-piperazinyl)-1,4-dihydro-4-oxoquinoline-3-carboxylic acid [Example 5]
minimum inhibitory concentration (MIC) ([1]; 1 × 10^6 cells/ml): 0.097 | minimum inhibitory concentration (MIC) ([1]; 1 × 10^8 cells/ml): 0.097 | minimum inhibitory concentration (MIC) ([2]; 1 × 10^6 cells/ml): < 0.048 | minimum inhibitory concentration (MIC) ([2]; 1 × 10^8 cells/ml): 0.097 | minimum inhibitory concentration (MIC) (Escherichia coli No. 29; 1 × 10^6 cells/ml): < 0.048 | minimum inhibitory concentration (MIC) (Escherichia coli No. 29; 1 × 10^8 cells/ml): 0.097 | minimum inhibitory concentration (MIC) ([3]; 1 × 10^6 cells/ml): 0.781 | minimum inhibitory concentration (MIC) ([3]; 1 × 10^8 cells/ml): 1.56 | minimum inhibitory concentration (MIC) ([4]; 1 × 10^6 cells/ml): 0.195 | minimum inhibitory concentration (MIC) ([4]; 1 × 10^8 cells/ml): 0.39 | minimum inhibitory concentration (MIC) ([5]; 1 × 10^6 cells/ml): 1.56 | minimum inhibitory concentration (MIC) ([5]; 1 × 10^8 cells/ml): 3.12 | minimum inhibitory concentration (MIC) ([6]; 1 × 10^6 cells/ml): 1.56 | minimum inhibitory concentration (MIC) ([6]; 1 × 10^8 cells/ml): 3.12 | minimum inhibitory concentration (MIC) ([7]; 1 × 10^6 cells/ml): 0.781 | minimum inhibitory concentration (MIC) ([7]; 1 × 10^8 cells/ml): 0.781 | minimum inhibitory concentration (MIC) ([8]; 1 × 10^6 cells/ml): 0.39 | minimum inhibitory concentration (MIC) ([8]; 1 × 10^8 cells/ml): 0.781 | minimum inhibitory concentration (MIC) ([9]; 1 × 10^6 cells/ml): 1.56 | minimum inhibitory concentration (MIC) ([9]; 1 × 10^8 cells/ml): 1.56 | minimum inhibitory concentration (MIC) ([10]; 1 × 10^6 cells/ml): 0.097 | minimum inhibitory concentration (MIC) ([10]; 1 × 10^8 cells/ml): 0.097 | minimum inhibitory concentration (MIC) ([11]; 1 × 10^6 cells/ml): 0.781 | minimum inhibitory concentration (MIC) ([11]; 1 × 10^8 cells/ml): 1.56

CN1CCN(c2cc3c(cc2F)c(=O)c(C(=O)O)cn3-c2ccc(F)cc2)CC1 [A]
minimum inhibitory concentration (MIC) ([1]; 1 × 10^6 cells/ml): 0.195 | minimum inhibitory concentration (MIC) ([1]; 1 × 10^8 cells/ml): 0.39 | minimum inhibitory concentration (MIC) ([12]; 1 × 10^6 cells/ml): 3.12 | minimum inhibitory concentration (MIC) ([12]; 1 × 10^8 cells/ml): 6.25 | minimum inhibitory concentration (MIC) ([2]; 1 × 10^6 cells/ml): 0.195 | minimum inhibitory concentration (MIC) ([2]; 1 × 10^8 cells/ml): 0.195 | minimum inhibitory concentration (MIC) (Escherichia coli No. 29; 1 × 10^6 cells/ml): 0.097 | minimum inhibitory concentration (MIC) (Escherichia coli No. 29; 1 × 10^8 cells/ml): 0.195 | minimum inhibitory concentration (MIC) ([3]; 1 × 10^6 cells/ml): 0.78 | minimum inhibitory concentration (MIC) ([3]; 1 × 10^8 cells/ml): 0.78 | minimum inhibitory concentration (MIC) ([4]; 1 × 10^6 cells/ml): 0.097 | minimum inhibitory concentration (MIC) ([4]; 1 × 10^8 cells/ml): 0.195 | minimum inhibitory concentration (MIC) ([5]; 1 × 10^6 cells/ml): 3.12 | minimum inhibitory concentration (MIC) ([5]; 1 × 10^8 cells/ml): 3.12 | minimum inhibitory concentration (MIC) ([6]; 1 × 10^6 cells/ml): 3.12 | minimum inhibitory concentration (MIC) ([6]; 1 × 10^8 cells/ml): 3.12 | minimum inhibitory concentration (MIC) ([7]; 1 × 10^6 cells/ml): 0.78 | minimum inhibitory concentration (MIC) ([7]; 1 × 10^8 cells/ml): 3.12 | minimum inhibitory concentration (MIC) ([8]; 1 × 10^6 cells/ml): 0.39 | minimum inhibitory concentration (MIC) ([8]; 1 × 10^8 cells/ml): 0.39 | minimum inhibitory concentration (MIC) ([9]; 1 × 10^6 cells/ml): 3.12 | minimum inhibitory concentration (MIC) ([9]; 1 × 10^8 cells/ml): 3.12 | minimum inhibitory concentration (MIC) ([10]; 1 × 10^6 cells/ml): 0.195 | minimum inhibitory concentration (MIC) ([10]; 1 × 10^8 cells/ml): 0.195

O=C(O)c1cn(-c2ccc(F)cc2)c2cc(N3CCNCC3)c(F)cc2c1=O [B]
minimum inhibitory concentration (MIC) ([1]; 1 × 10^6 cells/ml): 0.195 | minimum inhibitory concentration (MIC) ([1]; 1 × 10^8 cells/ml): 0.39 | minimum inhibitory concentration (MIC) ([12]; 1 × 10^6 cells/ml): 3.12 | minimum inhibitory concentration (MIC) ([12]; 1 × 10^8 cells/ml): 6.25 | minimum inhibitory concentration (MIC) ([2]; 1 × 10^6 cells/ml): < 0.048 | minimum inhibitory concentration (MIC) ([2]; 1 × 10^8 cells/ml): 0.097 | minimum inhibitory concentration (MIC) (Escherichia coli No. 29; 1 × 10^6 cells/ml): < 0.048 | minimum inhibitory concentration (MIC) (Escherichia coli No. 29; 1 × 10^8 cells/ml): 0.097 | minimum inhibitory concentration (MIC) ([3]; 1 × 10^6 cells/ml): 0.195 | minimum inhibitory concentration (MIC) ([3]; 1 × 10^8 cells/ml): 0.195 | minimum inhibitory concentration (MIC) ([4]; 1 × 10^6 cells/ml): 0.097 | minimum inhibitory concentration (MIC) ([4]; 1 × 10^8 cells/ml): 0.195 | minimum inhibitory concentration (MIC) ([5]; 1 × 10^6 cells/ml): 0.78 | minimum inhibitory concentration (MIC) ([5]; 1 × 10^8 cells/ml): 1.56 | minimum inhibitory concentration (MIC) ([6]; 1 × 10^6 cells/ml): 0.78 | minimum inhibitory concentration (MIC) ([6]; 1 × 10^8 cells/ml): 0.78 | minimum inhibitory concentration (MIC) ([7]; 1 × 10^6 cells/ml): 0.195 | minimum inhibitory concentration (MIC) ([7]; 1 × 10^8 cells/ml): 0.39 | minimum inhibitory concentration (MIC) ([8]; 1 × 10^6 cells/ml): 0.195 | minimum inhibitory concentration (MIC) ([8]; 1 × 10^8 cells/ml): 0.39 | minimum inhibitory concentration (MIC) ([9]; 1 × 10^6 cells/ml): 0.78 | minimum inhibitory concentration (MIC) ([9]; 1 × 10^8 cells/ml): 0.78 | minimum inhibitory concentration (MIC) ([10]; 1 × 10^6 cells/ml): < 0.048 | minimum inhibitory concentration (MIC) ([10]; 1 × 10^8 cells/ml): 0.097

CN1CCN(c2cc3c(cc2F)c(=O)c(C(=O)O)cn3-c2ccc(O)cc2)CC1 [C]
concentration at 0.5 h ([13]; Run 1, 0.5 hour, read-out: Amount of test compd. in plasma): 360 ng/mL | concentration at 1 h ([13]; Run 1, 1 hour, read-out: Amount of test compd. in plasma): 490 ng/mL | concentration at 2 h ([13]; Run 1, 2 hour, read-out: Amount of test compd. in plasma): 650 ng/mL | concentration at 4 h ([13]; Run 1, 4 hour, read-out: Amount of test compd. in plasma): 960 ng/mL | concentration at 7 h ([13]; Run 1, 7 hour, read-out: Amount of test compd. in plasma): 950 ng/mL | concentration at 24 h ([13]; Run 1, 24 hour, read-out: Amount of test compd. in plasma): 900 ng/mL | concentration at 0.5 h ([13]; Run 2, 0.5 hour, read-out: Amount of test compd. in plasma): < 390 ng/mL | concentration at 1 h ([13]; Run 2, 1 hour, read-out: Amount of test compd. in plasma): < 390 ng/mL | concentration at 2 h ([13]; Run 2, 2 hour, read-out: Amount of test compd. in plasma): < 390 ng/mL | concentration at 4 h ([13]; Run 2, 4 hour, read-out: Amount of test compd. in plasma): < 390 ng/mL | concentration at 7 h ([13]; Run 2, 7 hour, read-out: Amount of test compd. in plasma): < 390 ng/mL | concentration at 24 h ([13]; Run 2, 24 hour, read-out: Amount of test compd. in plasma): < 390 ng/mL | concentration at 0.5 h ([13]; average of two runs, 0.5 hour, read-out: Amount of test compd. in plasma, Average): < 280 ng/mL | concentration at 1 h ([13]; average of two runs, 1 hour, read-out: Amount of test compd. in plasma, Average): < 350 ng/mL | concentration at 2 h ([13]; average of two runs, 2 hour, read-out: Amount of test compd. in plasma, Average): < 430 ng/mL | concentration at 4 h ([13]; average of two runs, 4 hour, read-out: Amount of test compd. in plasma, Average): < 580 ng/mL | concentration at 7 h ([13]; average of two runs, 7 hour, read-out: Amount of test compd. in plasma, Average): < 580 ng/mL | concentration at 24 h ([13]; average of two runs, 24 hour, read-out: Amount of test compd. in plasma, Average): < 550 ng/mL | minimum inhibitory concentration (MIC) ([1]; 1 × 10^6 cells/ml): < 0.048 | minimum inhibitory concentration (MIC) ([1]; 1 × 10^8 cells/ml): 0.097 | minimum inhibitory concentration (MIC) ([12]; 1 × 10^6 cells/ml): 0.78 | minimum inhibitory concentration (MIC) ([12]; 1 × 10^8 cells/ml): 1.56 | minimum inhibitory concentration (MIC) ([2]; 1 × 10^6 cells/ml): 0.097 | minimum inhibitory concentration (MIC) ([2]; 1 × 10^8 cells/ml): 0.097 | minimum inhibitory concentration (MIC) (Escherichia coli No. 29; 1 × 10^6 cells/ml): < 0.048 | minimum inhibitory concentration (MIC) (Escherichia coli No. 29; 1 × 10^8 cells/ml): 0.097 | minimum inhibitory concentration (MIC) ([3]; 1 × 10^6 cells/ml): 0.39 | minimum inhibitory concentration (MIC) ([3]; 1 × 10^8 cells/ml): 0.39 | minimum inhibitory concentration (MIC) ([4]; 1 × 10^6 cells/ml): 0.097 | minimum inhibitory concentration (MIC) ([4]; 1 × 10^8 cells/ml): 0.097 | minimum inhibitory concentration (MIC) ([5]; 1 × 10^6 cells/ml): 0.78 | minimum inhibitory concentration (MIC) ([5]; 1 × 10^8 cells/ml): 1.56 | minimum inhibitory concentration (MIC) ([6]; 1 × 10^6 cells/ml): 0.39 | minimum inhibitory concentration (MIC) ([6]; 1 × 10^8 cells/ml): 0.78 | minimum inhibitory concentration (MIC) ([7]; 1 × 10^6 cells/ml): 0.195 | minimum inhibitory concentration (MIC) ([7]; 1 × 10^8 cells/ml): 0.39 | minimum inhibitory concentration (MIC) ([8]; 1 × 10^6 cells/ml): 0.195 | minimum inhibitory concentration (MIC) ([8]; 1 × 10^8 cells/ml): 0.39 | minimum inhibitory concentration (MIC) ([9]; 1 × 10^6 cells/ml): 0.39 | minimum inhibitory concentration (MIC) ([9]; 1 × 10^8 cells/ml): 0.78 | minimum inhibitory concentration (MIC) ([10]; 1 × 10^6 cells/ml): < 0.048 | minimum inhibitory concentration (MIC) ([10]; 1 × 10^8 cells/ml): 0.097
